Molecular target: T1, TYK2 (Homo sapiens, UniProt P29597)
T1 construct: Degradation of TYK2 in cells was quantitatively measured using Meso Scale Discovery (MSD) technology; endogenous in cells; host or cells: OCI-LY10
Assay: TYK2 MSD degradation in OCI-LY10 cells
Assay type: cell-based
Conditions: TYK2 degradation in OCI-LY10 cells, 4 to 24 hours incubation; for DC50: read-out: TYK2 MSD OCI-LY10 Rel-DC50
Protocol: Example 7. TYK2 MSD Degradation
Degradation of TYK2 in cells was quantitatively measured using Meso Scale Discovery (MSD) technology. OCI-LY10 cells were seeded in 96-well plates with a density of 0.4 million cells per well in 100 μl fresh media. Compounds were then added to the assay plates with a final top concentration of 1 to 10 μM in a 1:3 dilution series with total of 9 doses. The assay plates were then incubated for 4 to 24 hours at 37° C. under […]. The assay plates were then centrifuged for 5 minutes, and the cell pellets were treated with 100 μl/well RIPA lysis buffer (Boston Bioproducts, BP-115D) with protease and phosphatase inhibitors (Roche, 05892791001 and 04906837001). To prepare MSD assay plates (MSD, L15XA), the plates were coated with the capture antibody (Santa Cruz Biotechnology, SC-5271) in PBS, at 40 μl/well. The plates were then incubated overnight at 4° C., washed 3 times with 150 μl/well TBST buffer (Cell Signaling Technology, 9997S) and blocked with 150 μl/well blocking buffer (MSD, R93BA-4). Cell lysates were then added to MSD assay plates and the plates were incubated at room temperature for 1 hour. The plates were then washed 3 times with 150 μl/well TBST buffer and 25 μl/well primary detection antibody (Cell Signaling Technology, #9312). The assay plates were then incubated at room temperature for 1 hour, washed 3 times with 150 μl/well TBST buffer, and 25 μl/well secondary detection antibody, SULFO-TAG anti-rabbit antibody (MSD, R32AB-1) were added. The assay plates were then incubated at room temperature for 1 hour, washed 3 times with 150 μl/well TB ST buffer, and 150 μl/well MSD reading buffer (MSD, R92TC-2) were added. The plates were then analyzed by an MSD reader. The data was analyzed by GraphPad Prism and the dose dependent TYK2 degradation was fit using the four-parameter inhibitor vs. response nonlinear regression.
The letter codes for TYK2 DC50 include: A (<1 nM); B (i to <10 nM); C (10 to 100 nM); D (>100 nM); and E (not tested). The letter codes for TYK2 Dmax % include: A (>90%); B (90 to >75%); C (75 to 50%); D (<50%); and E (not tested).

T1 sequence (P29597 whole entry): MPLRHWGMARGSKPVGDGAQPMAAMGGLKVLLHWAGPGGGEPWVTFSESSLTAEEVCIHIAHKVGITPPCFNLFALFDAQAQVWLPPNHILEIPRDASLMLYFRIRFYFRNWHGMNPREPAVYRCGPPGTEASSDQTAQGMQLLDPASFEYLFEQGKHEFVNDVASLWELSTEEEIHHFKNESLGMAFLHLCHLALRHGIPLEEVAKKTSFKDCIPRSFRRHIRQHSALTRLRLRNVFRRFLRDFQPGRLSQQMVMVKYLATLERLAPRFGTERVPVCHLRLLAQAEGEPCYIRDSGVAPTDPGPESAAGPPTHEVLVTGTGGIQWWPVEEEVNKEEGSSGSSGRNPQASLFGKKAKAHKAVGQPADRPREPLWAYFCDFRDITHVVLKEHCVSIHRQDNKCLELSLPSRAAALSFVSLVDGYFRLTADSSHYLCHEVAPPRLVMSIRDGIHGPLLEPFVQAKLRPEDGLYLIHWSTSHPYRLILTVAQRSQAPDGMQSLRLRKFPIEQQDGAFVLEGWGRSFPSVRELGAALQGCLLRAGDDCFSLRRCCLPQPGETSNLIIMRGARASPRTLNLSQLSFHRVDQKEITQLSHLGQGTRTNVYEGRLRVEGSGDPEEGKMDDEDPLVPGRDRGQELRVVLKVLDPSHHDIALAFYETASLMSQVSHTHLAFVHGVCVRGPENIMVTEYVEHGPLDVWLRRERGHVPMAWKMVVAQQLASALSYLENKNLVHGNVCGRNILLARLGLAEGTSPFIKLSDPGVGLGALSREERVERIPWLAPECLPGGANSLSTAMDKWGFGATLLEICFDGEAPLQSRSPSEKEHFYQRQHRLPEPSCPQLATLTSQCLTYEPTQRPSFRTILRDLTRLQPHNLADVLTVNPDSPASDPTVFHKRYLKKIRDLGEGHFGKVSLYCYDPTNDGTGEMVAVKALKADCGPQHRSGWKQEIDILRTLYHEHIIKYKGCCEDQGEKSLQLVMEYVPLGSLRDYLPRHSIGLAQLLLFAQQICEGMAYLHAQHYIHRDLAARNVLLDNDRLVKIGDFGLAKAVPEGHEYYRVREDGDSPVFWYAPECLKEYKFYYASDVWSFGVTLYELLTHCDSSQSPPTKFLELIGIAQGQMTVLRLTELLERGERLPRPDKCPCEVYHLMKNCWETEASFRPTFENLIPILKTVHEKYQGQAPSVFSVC

SMILES | TYK2 MSD OCI-LY10 Dmax % | DC50
CNc1cc(N2CCc3c(-c4ccc(CN5CCC(N6CCN(c7ccc8c(c7)n(C)c(=O)n8C7CCC(=O)NC7=O)CC6)C(F)(F)C5)cn4)cc(F)cc32)nn2c(C(=O)NC3CC3)cnc12 (stereo not shown) [I-61] | B (B (90 to >75%)) | < 10 nM
CNc1cc(N2CCc3c(CN4CCC(N5CCC(N6CCN(c7ccc8c(c7)n(C)c(=O)n8C7CCC(=O)NC7=O)CC6)CC5)C(F)(F)C4)cccc32)nn2c(C(=O)NC3CC3)cnc12 (stereo not shown) [I-62] | B (B (90 to >75%)) | < 1 nM
CNc1cc(N2CCc3c(-c4ccc(CN5CC6(CCN(C(=O)c7ccc(C)c(N8CCC(=O)NC8=O)c7)CC6)C5)cn4)cccc32)nn2c(C(=O)N[C@@H]3C[C@@H]3F)cnc12 [I-63] | A (A (>90%)) | < 1 nM
CNc1cc(N2CCc3c(-c4ccc(CN5CC6(CCN(C(=O)c7ccc(OC)c(N8CCC(=O)NC8=O)c7)CC6)C5)cn4)cccc32)nn2c(C(=O)N[C@@H]3C[C@@H]3F)cnc12 [I-64] | A (A (>90%)) | < 1 nM
CNc1cc(N2CCc3c(-c4ccc(CN5CCC6(CC5)CCN(c5cc(Cl)cc(NC7CCC(=O)NC7=O)c5)CC6)cn4)cccc32)nn2c(C(=O)NC3CC3)cnc12 (stereo not shown) [I-65] | D (D (<50%)) | > 100 nM
CNc1cc(N2CCc3c(-c4ccc(CN5CCC6(CC5)CCN(c5ccc(Cl)c(NC7CCC(=O)NC7=O)c5)CC6)cn4)cccc32)nn2c(C(=O)NC3CC3)cnc12 (stereo not shown) [I-66] | D (D (<50%)) | > 100 nM
CNc1cc(N2CCc3c(-c4ccc(CN5CC6(CCN(C(=O)c7ccc(Cl)c(N8CCC(=O)NC8=O)c7)CC6(F)F)C5)cn4)cccc32)nn2c(C(=O)N[C@@H]3C[C@@H]3F)cnc12 [I-67] | A (A (>90%)) | < 1 nM
CNc1cc(N2CCc3c(-c4cc(CN5CCN(c6ccc7c(c6)n(C)c(=O)n7C6CCC(=O)NC6=O)CC5)ccn4)cccc32)nn2c(C(=O)NC3CC3)cnc12 (stereo not shown) [I-68] | B (B (90 to >75%)) | < 1 nM
CNc1cc(N2CCc3c(-c4ccc(CN5CCC(N6CCN(c7ccc8c(c7F)n(C)c(=O)n8C7CCC(=O)NC7=O)CC6)C(F)(F)C5)cn4)cccc32)nn2c(C(=O)NC3CC3)cnc12 (stereo not shown) [I-69] | B (B (90 to >75%)) | < 10 nM
CNc1cc(N2CCc3c(-c4cc(CN5CCN(c6ccc7c(c6F)n(C)c(=O)n7C6CCC(=O)NC6=O)CC5)ccn4)cccc32)nn2c(C(=O)NC3CC3)cnc12 (stereo not shown) [I-71] | B (B (90 to >75%)) | < 1 nM
CNc1cc(N2CCc3c(CN4CCC(N5CC(N6CCN(c7ccc8c(c7)n(C)c(=O)n8C7CCC(=O)NC7=O)CC6)C5)C(F)(F)C4)cccc32)nn2c(C(=O)N[C@@H]3C[C@@H]3F)cnc12 (stereo partly shown) [I-72] | B (B (90 to >75%)) | < 1 nM
CNc1cc(N2CCc3c(-c4ccc(CN5CC6(CCN(C(=O)c7ccc(Cl)c(N8CCC(=O)NC8=O)c7)CC6)C5)cc4)cccc32)nn2c(C(=O)N[C@@H]3C[C@@H]3F)cnc12 [I-73] | C (C (75 to 50%)) | < 10 nM
CNc1cc(N2CCc3c(-c4ccc(CN5CCC6(CC5)CCN(c5ccc(N7CCC(=O)NC7=O)c(Cl)c5)CC6)cn4)cccc32)nn2c(C(=O)N[C@@H]3C[C@@H]3F)cnc12 [I-74] | D (D (<50%)) | < 10 nM
CNc1cc(N2CCc3c(-c4ccc(OC5CCC6(CC5)CCN(C(=O)c5ccc(Cl)c(N7CCC(=O)NC7=O)c5)CC6)cn4)cccc32)nn2c(C(=O)N[C@@H]3C[C@@H]3F)cnc12 [I-75] | C (C (75 to 50%)) | < 10 nM
CNc1cc(N2CCc3c(-c4ccc(OC5CC6(CCN(C(=O)c7ccc(Cl)c(N8CCC(=O)NC8=O)c7)CC6)C5)cn4)cccc32)nn2c(C(=O)N[C@@H]3C[C@@H]3F)cnc12 [I-76] | B (B (90 to >75%)) | < 1 nM
CNc1cc(N2CCc3c(-c4ccc(CN5CCC6(CC5)CCN(c5ccc(C7CCC(=O)NC7=O)c(Cl)c5)CC6)cn4)cccc32)nn2c(C(=O)N[C@@H]3C[C@@H]3F)cnc12 (stereo partly shown) [I-77] | D (D (<50%)) | < 10 nM
CNc1cc(N2CCc3c(-c4cc(CN5CCN(C(=O)c6ccc(Cl)c(N7CCC(=O)NC7=O)c6)CC5)ccn4)cccc32)nn2c(C(=O)N[C@@H]3C[C@@H]3F)cnc12 [I-78] | D (D (<50%)) | < 10 nM
CNc1cc(N2CCc3c(-c4cc(CN5CC6(CCN(C(=O)c7ccc(Cl)c(N8CCC(=O)NC8=O)c7)CC6)C5)ccn4)cccc32)nn2c(C(=O)N[C@@H]3C[C@@H]3F)cnc12 [I-79] | D (D (<50%)) | < 10 nM
CNc1cc(N2CCc3c(-c4cc(CN5CCN(c6ccc7c(c6F)n(C)c(=O)n7C6CCC(=O)NC6=O)CC5)ccn4)cccc32)nn2c(C(N)=O)cnc12 (stereo not shown) [I-81] | B (B (90 to >75%)) | < 1 nM
CNc1cc(N2CCc3c(-c4ccc(CN5CCC6(CC5)CCN(C(=O)c5ccc(Cl)c(N7CCC(=O)NC7=O)c5)C6)cn4)cccc32)nn2c(C(=O)N[C@H]3C[C@H]3F)cnc12 [I-82] | B (B (90 to >75%)) | < 1 nM
CNc1cc(N2CCc3c(-c4ccc(CN5CCC(N6CCN(c7ccc(C8CCC(=O)NC8=O)c(Cl)c7)CC6)C(F)(F)C5)cn4)cccc32)nn2c(C(=O)N[C@H]3C[C@H]3F)cnc12 (stereo partly shown) [I-83] | D (D (<50%)) | < 10 nM
CNc1cc(N2CCc3c(CN4CCC(N5CCC(C6CCN(c7ccc8c(c7)n(C)c(=O)n8C7CCC(=O)NC7=O)CC6)CC5)C(F)(F)C4)cccc32)nn2c(C(=O)N[C@H]3C[C@H]3F)cnc12 (stereo partly shown) [I-84] | C (C (75 to 50%)) | < 10 nM
CNc1cc(N2CCc3c(-c4ccc(CN5CCC6(CCN(C(=O)c7ccc(Cl)c(N8CCC(=O)NC8=O)c7)CC6)C5)cn4)cccc32)nn2c(C(=O)N[C@H]3C[C@H]3F)cnc12 [I-85] | B (B (90 to >75%)) | < 1 nM
CNc1cc(N2CCc3c(-c4ccc(CN5CCC(N6CCC(C#Cc7ccc8c(c7)n(C)c(=O)n8C7CCC(=O)NC7=O)CC6)C(F)(F)C5)cn4)cccc32)nn2c(C(=O)N[C@H]3C[C@H]3F)cnc12 (stereo partly shown) [I-86] | C (C (75 to 50%)) | < 10 nM
CNc1cc(N2CCc3c(-c4ccc(CN5CC6(CCN(Cc7ccc(N8CCC(=O)NC8=O)c(Cl)c7)CC6(F)F)C5)cn4)cccc32)nn2c(C(=O)N[C@H]3C[C@H]3F)cnc12 [I-87] | D (D (<50%)) | < 10 nM
CNc1cc(N2CCc3c(-c4ccc(N5CCN(C(=O)c6ccc(Cl)c(N7CCC(=O)NC7=O)c6)CC5)cn4)cccc32)nn2c(C(=O)N[C@@H]3C[C@@H]3F)cnc12 [I-90] | D (D (<50%)) | < 10 nM
CNc1cc(N2CCc3c(-c4ccc(CN5CCC6(CC5)CCN(C(=O)c5ccc(Cl)c(C7CCC(=O)NC7=O)c5)CC6)cn4)cccc32)nn2c(C(=O)N[C@@H]3C[C@@H]3F)cnc12 (stereo partly shown) [I-91] | B (B (90 to >75%)) | < 1 nM
CCNC(=O)c1nnc(Nc2ccc(CN3CC4(CCN(c5cccc6c5n(C)c(=O)n6C5CCC(=O)NC5=O)CC4(F)F)C3)cn2)cc1Nc1cccc(F)c1OC (stereo not shown) [I-92] | C (C (75 to 50%)) | 10 to 100 nM
CNc1cc(N2CCc3c(N4CCC5(CCN(C(=O)c6ccc(Cl)c(N7CCC(=O)NC7=O)c6)CC5)CC4)cccc32)nn2c(C(=O)N[C@@H]3C[C@@H]3F)cnc12 [I-93] | D (D (<50%)) | < 10 nM

From patent publication US20260125400A1, “TYK2 DEGRADERS AND USES THEREOF” (Kymera Therapeutics, Inc., priority 2023, published 2026)
